A short description of this data set: gradient 5% acetonitrile 3 min, to 50% in 2 min, to 85% in 15 min, held 3 min, 100 µL/min. The settings on record: column: Zorbax Extend-C18 2.1 x 50 mm; eluents: water / acetonitrile, 0.1% formic acid. The gist of the method:
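Standards, all pure, were combined into mixtures of ~100 molecules and run at 100 μL/min on a Zorbax Extend-C18 column (2.1 × 50 mm, 1.8 μm) with water and acetonitrile, each containing 0.1% formic acid. A coupled quadrupole time-of-flight mass spectrometer operated in positive and negative ionization mode. Retention time values come from computationally picked adduct peaks, each inspected manually.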
`O=S(=O)(NCCOc1ccccc1)c1ccccc1Cl` yielded an RP-LC retention time of 869 s.

In the case of `CCc1nnc(-c2cc(NC(=O)C3CCN(C(C)=O)CC3)c(C)s2)o1`, the RP-LC retention time amounted to 697 s.

Regarding `CCCCN1C(=O)C(CC(=O)NC2CCCC2)Sc2ncccc21` (stereo not given), the RP-LC retention time was determined as 808 s.

Regarding `O=C(Nc1ccc(F)c(F)c1)c1cccn1Cc1noc(C2CC2)n1`, the RP-LC retention time was determined as 966 s.

On to `O=C(c1cccs1)N1CCC2(CC1)NC(=O)N(Cc1ccc(F)cc1)C2=O`, for which the RP-LC retention time is 764 s.

As for `COCCn1c(CC2CCN(C(=O)Cc3ccsc3)C2)nc2cccnc21` (stereo not given), the RP-LC retention time is 599 s.

In turn, `CCCNCc1ccc(-c2ccccc2)o1` displayed an RP-LC retention time of 641 s.

Molecule `Cc1ccsc1CCNC(=O)C1CCN(S(=O)(=O)c2ccc3c(c2)CCCC(=O)N3)CC1` had an RP-LC retention time of 760 s.

In turn, `CCN1c2cc(Cl)ccc2C(=O)NC12CCN(C(=O)Nc1ccc(OC)cc1C)CC2` showed an RP-LC retention time of 841 s.

Molecule `Cc1csc(COc2ccc(C(=O)NC(C)CCc3ccccc3)cc2)n1` (stereo not given) had an RP-LC retention time of 595 s.

For `Cc1ccn2c(NC(=O)c3cccc(Cl)c3)c(-c3ccccc3)nc2c1`, the RP-LC retention time is 682 s.

`CCCCN1CCN(c2ncccc2-c2nnc(-c3ccc(Cl)cc3)o2)CC1` came in with an RP-LC retention time of 743 s.

In the case of `COC(=O)C(Cc1ccccc1)NC(=O)Nc1cccn2c(C)nnc12` (stereo not given), the RP-LC retention time was 685 s.

For the molecule `COc1ccc(NC(=O)CSc2nccc(N3CCN(c4cc(C)ccc4C)CC3)n2)c(OC)c1`, the RP-LC retention time was found to be 980 s.

In turn, `CCOc1ccc(C(=O)NC2CCN(c3cc(-c4cccs4)[nH]n3)C2)cc1OCC` (stereo not given) gave an RP-LC retention time of 755 s.

`COC(=O)c1c(C)[nH]c(C(=O)N2CCCC(C(=O)N3CCN(c4ccc(OC)cc4)CC3)C2)c1C` (stereo not given) showed an RP-LC retention time of 707 s.

The molecule `COc1ccc(CNC(=O)c2ccc3c(c2)NC(=O)C2CCCCN32)c(OC)c1` (stereo not given) returned an RP-LC retention time of 795 s.

Molecule `COc1ccc(CCc2nc3nccc(-c4ccncc4)n3n2)cc1` returned an RP-LC retention time of 697 s.

For the molecule `O=C(c1ccco1)N1CCN(c2ncnc3c2cnn3Cc2ccccc2)CC1`, the RP-LC retention time is 741 s.

The molecule `Cc1sc(NC(=O)C2CCCCC2)nc1-c1ccc2c(c1)NC(=O)CO2` returned an RP-LC retention time of 921 s.

In turn, `O=C(NCc1csc(-c2cccs2)n1)C1CCN(C(=O)c2c(F)cccc2F)CC1` gave an RP-LC retention time of 769 s.

Molecule `Cc1sc(NC(=O)CCCC(=O)O)nc1-c1ccccc1` showed an RP-LC retention time of 752 s.

In the case of `Cc1ccc(CNC(=O)Cn2cccc2-c2nnc(-c3ccccc3)o2)o1`, the RP-LC retention time amounted to 882 s.

`COc1ccc(NC(=O)c2noc3c2CCCC3)cc1OC` showed an RP-LC retention time of 842 s.

`Oc1cccc(-c2nc3cnccn3c2Nc2ccc(F)cc2)c1`: the RP-LC retention time was 728 s.

Consider `Cc1cc(-c2nnc(-c3ccco3)o2)c(C)n1CC(=O)NCc1ccc(F)cc1Cl`, for which the RP-LC retention time stood at 881 s.

On to `COc1ccc(Cn2c(C)c(CNCc3ccco3)c(C(=O)O)c2C)cc1`, for which the RP-LC retention time is 673 s.

In the case of `O=C(c1cc(C2CC2)[nH]n1)N1CCN(c2ccc(Cl)cc2)CC1`, the RP-LC retention time turned out to be 837 s.

Molecule `Cc1cc2nn(CC(=O)Nc3c(C)cccc3C)c(=O)n2c(-c2ccc(F)cc2)n1` yielded an RP-LC retention time of 826 s.

As for `CN(CCc1ccccn1)C(=O)c1cn2ccnc(-c3ccccc3)c2n1`, the RP-LC retention time came out at 563 s.

The molecule `CC(C)CN1C(=O)c2ccccc2C(C(=O)NCCCN2CCOCC2)C1c1cccs1` (stereo not given) came in with an RP-LC retention time of 644 s.

Molecule `N#Cc1ccc(C(=O)NC2CCN(C(=O)C3CC3)C2)cc1` (stereo not given) gave an RP-LC retention time of 629 s.

On to `CCCCCNC(=O)c1ccc(Oc2nccnc2N2CCSCC2)cc1`, for which the RP-LC retention time came out at 1030 s.

In turn, `Cc1nc(C)c(C(=O)N2CC[C@H](CO)[C@H](NC(=O)C3CC3)C2)s1` showed an RP-LC retention time of 573 s.

`COc1ccc2c(c1)C1(CCN(C(=O)c3cccs3)C1)C(=O)N2C` (stereo not given) showed an RP-LC retention time of 738 s.

The molecule `O=C([C@@H]1C[C@H](F)CN1C(=O)NCc1ccc(F)cc1)N1CCc2ccccc2C1` showed an RP-LC retention time of 747 s.

`COCc1nc2cccnc2n1C1CCN(C(=O)Nc2ccccc2Br)CC1`: the RP-LC retention time came out at 724 s.

Molecule `CCOC(=O)c1noc2nc(C)nc(NCC3CCN(Cc4ccc(C)cc4)CC3)c12` gave an RP-LC retention time of 705 s.

On to `O=C(O)C1CCN(S(=O)(=O)c2cccc([N+](=O)[O-])c2)CC1`, for which the RP-LC retention time is 663 s.

`O=C(O)c1cn(CCc2ccccc2)nc1S(=O)(=O)N1CCSCC1` gave an RP-LC retention time of 838 s.

In the case of `Cc1noc(-c2nn(C)c3c2CN(C(=O)COc2ccc(F)cc2)CC3)n1`, the RP-LC retention time stood at 740 s.

On to `O=c1ccc(-c2ccc3c(c2)OCO3)nn1CCc1nc(-c2cccc(Br)c2)no1`, for which the RP-LC retention time is 1060 s.

On to `CCCn1cc(CCNC(=O)Nc2ccc(Cl)cc2)c2cccnc21`, for which the RP-LC retention time amounted to 812 s.

The molecule `COc1ccc(Cl)cc1NC(=O)c1c(O)c2cccnc2n(-c2ccc(F)cc2)c1=O` showed an RP-LC retention time of 1280 s.

Turning to `COC[C@@H]1CN(C(=O)Cn2nc(C(F)(F)F)cc2C)C[C@H]1C(N)=O`, the RP-LC retention time came to 622 s.

`CCN1C(=O)c2cccnc2Sc2cc(NC(=O)c3cccc(Cl)c3)ccc21` gave an RP-LC retention time of 912 s.

Take `Cn1nc(CNC(=O)c2cnccn2)c2ccccc21`: the RP-LC retention time came to 689 s.

`COCCn1cc(C(=O)Nc2cccc(F)c2)c2nn(-c3ccccc3)c(=O)c-2c1` returned an RP-LC retention time of 970 s.

As for `COCCOCc1nc(C2CCN(S(=O)(=O)c3cc(F)ccc3F)CC2)no1`, the RP-LC retention time was 806 s.

For `CC(CCNC(=O)CN1C(=O)C2CCCCN2c2ccc(C(=O)N3CCCC3)cc21)N1CCCC1` (stereo not given), the RP-LC retention time worked out at 614 s.

Molecule `COc1ccc(C(=O)Nc2ccc(-c3cn4ccc(C)nc4n3)cc2)cc1` gave an RP-LC retention time of 632 s.

Turning to `CCc1ccccc1S(=O)(=O)N1CCC(C(=O)NCc2csc(-c3ccccc3)n2)CC1`, the RP-LC retention time is 999 s.

The molecule `Cn1nc(N2CCCC(NS(=O)(=O)c3cccc(Cl)c3)C2)ccc1=O` (stereo not given) displayed an RP-LC retention time of 775 s.

As to `CCc1nn2c(CNC(=O)c3cccnc3)c(-c3ccccc3)nc2s1`, the RP-LC retention time was determined as 700 s.

For `CCCC(NC(=O)C1CCCN(c2ccc(=O)n(-c3ccc(C)c(Cl)c3)n2)C1)c1cccs1` (stereo not given), the RP-LC retention time is 1040 s.

The molecule `CCOc1ccc(-c2nc3ncccn3c2NCc2ccc(F)cc2)cc1` came in with an RP-LC retention time of 759 s.

The molecule `CCOc1nc2c(c(C)nn2-c2ccccc2)c(C)c1CCC(=O)N1CCN(c2ccccn2)CC1` displayed an RP-LC retention time of 822 s.

Molecule `Cc1cc(-c2ccc(S(=O)(=O)N3CCN(c4ccccn4)CC3)s2)n[nH]1` returned an RP-LC retention time of 623 s.

As to `CCCCCn1c(=O)c2ccccc2n(Cc2nc(-c3cccc(Cl)c3)no2)c1=O`, the RP-LC retention time was 1100 s.

As to `CSc1ncccc1C(=O)Nc1ccc(CC(=O)NC(C)(C)CO)cc1`, the RP-LC retention time is 633 s.

In turn, `O=c1[nH]c2ccccc2nc1-c1cc(Cl)ccc1NS(=O)(=O)c1ccccc1` displayed an RP-LC retention time of 895 s.

Molecule `O=C(Nc1ccccc1)C1CCCN(c2nccnc2Sc2ccccc2)C1` (stereo not given) came in with an RP-LC retention time of 1060 s.

In the case of `O=C(c1ccc2c(c1)ncn2CCN1CCCC1)N1CCN(c2ccccc2F)CC1`, the RP-LC retention time came to 596 s.

On to `CCOC(=O)c1c(C)n(C)c2ccc(OC(C)=O)cc12`, for which the RP-LC retention time was determined as 889 s.

As for `CCOC(=O)c1c(C)[nH]c(CCC(=O)NC(C)c2ccc3c(c2)OCCO3)c1C` (stereo not given), the RP-LC retention time turned out to be 854 s.

`O=C(NCc1ccc(F)cc1F)c1c(O)c2cccnc2n(Cc2ccccc2)c1=O` had an RP-LC retention time of 1400 s.

In the case of `CC(=O)N1c2ccc(S(=O)(=O)N3CCCCC3)cc2CC1C(=O)N1CCCC1` (stereo not given), the RP-LC retention time stood at 743 s.

As for `O=C(NC1CC1)c1ccc2c(c1)CCCN2S(=O)(=O)c1ccccc1`, the RP-LC retention time was determined as 804 s.

As to `CN(C)c1cc(C(=O)NC2CC2)c2cc(F)ccc2n1`, the RP-LC retention time is 722 s.

Molecule `CN1C2CCC1CC(OC(=O)C(O)c1ccccc1)C2` (stereo not given) registered an RP-LC retention time of 794 s.

In the case of `Cc1sc(-c2cc(C(F)(F)F)on2)cc1S(=O)(=O)Nc1ccc(Br)cc1F`, the RP-LC retention time amounted to 1230 s.

With `CN(C)CCCn1cc2c(c1-c1cccc(Br)c1)c(=O)n(C)c(=O)n2C`, the RP-LC retention time turned out to be 617 s.

In turn, `CC(C)c1ccc(CNC(=O)CN2CCN(Cc3ccc(F)cc3)C2=O)cc1` registered an RP-LC retention time of 933 s.

Regarding `Cn1c(=O)sc2cc(S(=O)(=O)N3CCC(C(=O)NC4CC4)CC3)ccc21`, the RP-LC retention time is 670 s.

In the case of `CCn1cc(-c2ccc(Cl)cc2)cc1C(=O)NCCOC`, the RP-LC retention time was determined as 954 s.

In the case of `CCOCCCNC(=O)CC1CCN(C(=O)c2[nH]c(C)cc2C)CC1`, the RP-LC retention time was determined as 661 s.

`O=C(CC1CCCC1)N1CCCCC1c1nncn1Cc1ccccc1` (stereo not given) yielded an RP-LC retention time of 890 s.

With `CCOC(=O)c1ccc(NC(=O)Cn2nc(N3CCCC(C)C3)c3ccccc3c2=O)cc1` (stereo not given), the RP-LC retention time is 1200 s.

In turn, `Cc1nn(C)c(C)c1CNC(=O)c1cccc2[nH]cc(CN3CCCC3)c12` gave an RP-LC retention time of 600 s.

With `CCCCn1c(=O)c2ccccc2n(Cc2nc(-c3ccc(F)c(Cl)c3)no2)c1=O`, the RP-LC retention time came out at 1290 s.
